From patent publication US9914736B2, “TrKA kinase inhibitors, compositions and methods thereof” (Merck Sharp & Dohme Corp., priority 2014, dated 2018)

Molecular target: human TrkA receptor (Homo sapiens (Human), UniProt P04629)
Experiment: DiscoverX PathHunter TrkA functional assay
Assay type: cell-based
Settings: U2OS cells expressing human TrkA-ProLink, Shc1-EA and p75NTR; compound 1 h, then NGF at ~80% of maximal response for 3 h; luminescence

Chain of human TrkA receptor (P04629 33-796): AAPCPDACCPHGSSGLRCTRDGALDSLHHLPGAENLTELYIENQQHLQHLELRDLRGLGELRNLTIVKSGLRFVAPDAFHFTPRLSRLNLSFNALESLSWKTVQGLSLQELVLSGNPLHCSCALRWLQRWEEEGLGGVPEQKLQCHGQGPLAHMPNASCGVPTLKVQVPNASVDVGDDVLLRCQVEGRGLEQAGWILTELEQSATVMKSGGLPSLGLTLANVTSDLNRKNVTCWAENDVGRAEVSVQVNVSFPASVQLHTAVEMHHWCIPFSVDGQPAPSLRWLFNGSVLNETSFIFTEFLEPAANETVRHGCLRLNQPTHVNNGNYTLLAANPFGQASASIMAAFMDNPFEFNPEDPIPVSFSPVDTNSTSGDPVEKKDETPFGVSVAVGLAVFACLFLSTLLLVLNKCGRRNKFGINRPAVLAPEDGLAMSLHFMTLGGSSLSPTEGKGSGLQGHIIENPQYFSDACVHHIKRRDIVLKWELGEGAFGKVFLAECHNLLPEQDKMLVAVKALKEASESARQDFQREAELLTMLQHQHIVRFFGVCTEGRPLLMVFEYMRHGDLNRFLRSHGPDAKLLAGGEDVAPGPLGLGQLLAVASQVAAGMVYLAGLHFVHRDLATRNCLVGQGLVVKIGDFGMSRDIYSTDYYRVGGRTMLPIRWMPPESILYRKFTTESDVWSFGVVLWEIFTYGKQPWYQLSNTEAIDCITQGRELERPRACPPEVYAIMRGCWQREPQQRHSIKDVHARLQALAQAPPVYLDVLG

| IC50 [nM] | Compound |
| --- | --- |
| 2.4 | Cn1ccc(-c2cc(C(=O)Nc3cc(CC(N)=O)nn3-c3ccc(F)cc3)c(F)cc2C(F)(F)F)n1 [Compound 111, N-(3-(2-amino-2-oxoethyl)-1-(4-fluorophenyl)-1H-pyrazol-5-yl)-2-fluoro-5-(1-methyl-1H-pyrazol-3-yl)-4-(trifluoromethyl)benzamide] |
| 1.9 | Cn1ccc(-c2cc(C(=O)Nc3cc(CN4C(=O)CNC4=O)nn3-c3ccc(F)cc3)c(F)cc2C(F)(F)F)n1 [Compound 112, N-(3-((2,5-dioxoimidazolidin-1-yl)methyl)-1-(4-fluorophenyl)-1H-pyrazol-5-yl)-2-fluoro-5-(1-methyl-1H-pyrazol-3-yl)-4-(trifluoromethyl)benzamide] |
| 15 | O=C(Nc1cc(Cc2n[nH]c(=O)o2)nn1-c1ccc(F)cc1)c1cc(-c2ncccn2)c(C(F)(F)F)cc1F [Compound 113, 2-fluoro-N-(1-(4-fluorophenyl)-3-((5-oxo-4,5-dihydro-1,3,4-oxadiazol-2-yl)methyl)-1H-pyrazol-5-yl)-5-(pyrimidin-2-yl)-4-(trifluoromethyl)benzamide] |
| 2.4 | CNC(=O)Cc1cc(NC(=O)c2cc(-c3ccn(C)n3)c(C(F)(F)F)cc2F)n(-c2ccc(F)cc2)n1 [Compound 114, 2-fluoro-N-(1-(4-fluorophenyl)-3-(2-(methylamino)-2-oxoethyl)-1H-pyrazol-5-yl)-5-(1-methyl-1H-pyrazol-3-yl)-4-(trifluoromethyl)benzamide] |
